Like-named read-outs stand apart in the source and are kept apart here.
Columns and labels:
Type in all cases: in vivo
[1] = tested on: umbrella sedge (Cyperus difformis); test: Test B flooded paddy test plant response
Summary of the method: (§1)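 Compounds were added directly to paddy water over 2-leaf-stage plants in pots flooded 3 cm above soil, water depth maintained. Visual injury scored against controls after 13 to 15 days in greenhouse, 0 (none) to 100 (complete control); dash indicates no result.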

[2] = tested on: ducksalad (Heteranthera limosa); test: Test B flooded paddy test plant response
Summary of the method: as §1

[3] = tested on: barnyardgrass (Echinochloa crus-galli); test: Test B flooded paddy test plant response
Summary of the method: as §1

rice (Oryza sativa) = test: Test B flooded paddy test plant response
Summary of the method: as §1

[4] = tested on: morningglory (Ipomoea coccinea); test: Test B pre-/postemergence plant response; conditions: for Plant response rating, Morningglory: Postemergence
Description: (§2) Seeds of plant species selected from blackgrass (Alopecurus myosuroides), downy bromegrass (Bromus tectorum), green foxtail (Setaria viridis), Italian ryegrass (Lolium multiflorum), wheat (Triticum aestivum), wild oat (Avena fatua), catchweed bedstraw (Galium aparine), bermudagrass (Cynodon dactylon), surinam grass (Brachiaria decumbens), cocklebur (Xanthium strumarium), corn (Zea mays), large crabgrass (Digitaria sanguinalis), woolly cupgrass (Eriochloa villosa), giant foxtail (Setaria faberii), goosegrass (Eleusine indica), johnsongrass (Sorghum halepense), kochia (Kochia scoparia), lambsquarters (Chenopodium album), morningglory (Ipomoea coccinea), eastern black (E.B.) nightshade (Solanum ptycanthum), yellow nutsedge (Cyperus esculentus), pigweed (Amaranthus retroflexus), common ragweed (Ambrosia elation), Russian thistle (Salsola iberica), soybean (Glycine max), common (oilseed) sunflower (Helianthus annuus), and velvetleaf (Abutilon theophrasti) were planted and treated preemergence with test chemicals formulated in a non-phytotoxic solvent mixture which included a surfactant.
(§3) At the same time, plants selected from these crop and weed species and also winter barley (Hordeum vulgare), canarygrass (Phalaris minor), chickweed (Stellaria media) and windgrass (Apera spica-venti) were treated with postemergence applications of some of the test chemicals formulated in the same manner. Plants ranged in height from 2 to 18 cm (1- to 4-leaf stage) for postemergence treatments.
(§4) Plant species in the flooded paddy test consisted of rice (Oryza sativa), umbrella sedge (Cyperus difformis), ducksalad (Heteranthera limosa) and barnyardgrass (Echinochloa crus-galli) grown to the 2-leaf stage for testing. At time of treatment, test pots were flooded to 3 cm above the soil surface, treated by application of test compounds directly to the paddy water, and then maintained at that water depth for the duration of the test. Treated plants and controls were maintained in a greenhouse for 13 to 15 days, after which time all species were compared to controls and visually evaluated. Plant response ratings, summarized in Table B, are based on a scale of 0 to 100 where 0 is no effect and 100 is complete control. A dash (-) response means no test result.

[5] = tested on: surinam grass (Brachiaria decumbens); test: Test B pre-/postemergence plant response; conditions: for Plant response rating, Surinam Grass: Postemergence
Description: as §2, §3, §4

[6] = tested on: goosegrass (Eleusine indica); test: Test B pre-/postemergence plant response; conditions: for Plant response rating, Goosegrass: Postemergence
Description: as §2, §3, §4

[7] = tested on: wheat (Triticum aestivum); test: Test B pre-/postemergence plant response; conditions: for Plant response rating, Wheat: Postemergence
Description: as §2, §3, §4

[8] = tested on: giant foxtail (Setaria faberii); test: Test B pre-/postemergence plant response; conditions: for Plant response rating, Foxtail, Giant: Postemergence
Description: as §2, §3, §4

soybean (Glycine max) = test: Test B pre-/postemergence plant response; conditions: for Plant response rating, Soybean: Postemergence
Description: as §2, §3, §4

[9] = tested on: downy bromegrass (Bromus tectorum); test: Test B pre-/postemergence plant response; conditions: for Plant response rating, Bromegrass, Downy: Postemergence
Description: as §2, §3, §4

[10] = Cyperus difformis, Flood (flooded paddy test), 250 g ai/ha, scale 0 to 100, 0 no effect, 100 complete control, read-out: Plant response rating, Sedge, Umbrella
[11] = Cyperus difformis, Flood, 62 g ai/ha, scale 0 to 100, read-out: Plant response rating, Sedge, Umbrella
[12] = Heteranthera limosa, Flood (flooded paddy test), 250 g ai/ha, scale 0 to 100, 0 no effect, 100 complete control, read-out: Plant response rating, Ducksalad
[13] = Heteranthera limosa, Flood, 62 g ai/ha, scale 0 to 100, read-out: Plant response rating, Ducksalad
[14] = Echinochloa crus-galli, Flood (flooded paddy test), 250 g ai/ha, scale 0 to 100, 0 no effect, 100 complete control, read-out: Plant response rating, Barnyardgrass
[15] = Echinochloa crus-galli, Flood, 62 g ai/ha, scale 0 to 100, read-out: Plant response rating, Barnyardgrass
[16] = Oryza sativa, Flood (flooded paddy test), 250 g ai/ha, scale 0 to 100, 0 no effect, 100 complete control, read-out: Plant response rating, Rice
[17] = Oryza sativa, Flood, 62 g ai/ha, scale 0 to 100, read-out: Plant response rating, Rice
[18] = Flood (flooded paddy test), 62 g ai/ha, scale 0 to 100, 0 no effect, 100 complete control
[19] = Flood (flooded paddy test), 250 g ai/ha, scale 0 to 100, 0 no effect, 100 complete control
[20] = 8 g ai/ha, postemergence, 0-100 scale
[21] = 62 g ai/ha, scale 0 to 100, 0 no effect, 100 complete control

Question: For `Cn1ncc(O)c(-c2nn(-c3ccc(C(F)(F)F)cc3)cc2Br)c1=O` [Compound 87, 4-[4-bromo-1-[4-(trifluoromethyl)phenyl]-1H-pyrazol-3-yl]-5-hydroxy-2-methyl-3(2H)-pyridazinone], which pest or weed control at 250 g/ha [1, 10] is on record?
Answer: 0%

Question: And the pest or weed control at 62 g/ha [1, 11]?
Answer: 0%

Question: And the pest or weed control at 250 g/ha [2, 12]?
Answer: 0%

Question: And the pest or weed control at 62 g/ha [2, 13]?
Answer: 0%

Question: And the pest or weed control at 250 g/ha [3, 14]?
Answer: 0%

Question: And the pest or weed control at 62 g/ha [3, 15]?
Answer: 0%

Question: And the plant injury at 250 g/ha (rice (Oryza sativa); [16])?
Answer: 0%

Question: What about the plant injury at 62 g/ha (rice (Oryza sativa); [17]) of the same compound?
Answer: 0%

Question: For `Cc1cc(-c2ccc(Br)cc2)nn1-c1c(O)cnn(C2CCCCO2)c1=O` (centres unmarked) [Compound 77, 4-[3-(4-bromophenyl)-5-methyl-1H-pyrazol-1-yl]-5-hydroxy-2-(tetrahydro-2H-pyran-2-yl)-3(2H)-pyridazinone], which pest or weed control at 62 g/ha ([1]; Cyperus difformis, Flood (flooded paddy test), 62 g ai/ha, scale 0 to 100, 0 no effect, 100 complete control, read-out: Plant response rating, Sedge, Umbrella) is on record?
Answer: 0%

Question: What about the pest or weed control at 125 g/ha ([1]; Cyperus difformis, Flood (flooded paddy test), 125 g ai/ha, scale 0 to 100, 0 no effect, 100 complete control, read-out: Plant response rating, Sedge, Umbrella) of the same compound?
Answer: 0%

Question: And the pest or weed control at 250 g/ha [1, 10]?
Answer: 0%

Question: And the pest or weed control at 31 g/ha ([1]; Cyperus difformis, Flood, 31 g ai/ha, scale 0 to 100, read-out: Plant response rating, Sedge, Umbrella)?
Answer: 0%

Question: What about the pest or weed control at 62 g/ha ([2]; Heteranthera limosa, Flood (flooded paddy test), 62 g ai/ha, scale 0 to 100, 0 no effect, 100 complete control, read-out: Plant response rating, Ducksalad) of the same compound?
Answer: 0%

Question: And the pest or weed control at 125 g/ha ([2]; Heteranthera limosa, Flood (flooded paddy test), 125 g ai/ha, scale 0 to 100, 0 no effect, 100 complete control, read-out: Plant response rating, Ducksalad)?
Answer: 0%

Question: And the pest or weed control at 250 g/ha [2, 12]?
Answer: 0%

Question: What about the pest or weed control at 31 g/ha ([2]; Heteranthera limosa, Flood, 31 g ai/ha, scale 0 to 100, read-out: Plant response rating, Ducksalad) of the same compound?
Answer: 0%

Question: What about the pest or weed control at 62 g/ha ([3]; Echinochloa crus-galli, Flood (flooded paddy test), 62 g ai/ha, scale 0 to 100, 0 no effect, 100 complete control, read-out: Plant response rating, Barnyardgrass) of the same compound?
Answer: 0%

Question: And the pest or weed control at 125 g/ha ([3]; Echinochloa crus-galli, Flood (flooded paddy test), 125 g ai/ha, scale 0 to 100, 0 no effect, 100 complete control, read-out: Plant response rating, Barnyardgrass)?
Answer: 0%

Question: What about the pest or weed control at 250 g/ha [3, 14] of the same compound?
Answer: 0%

Question: What about the pest or weed control at 31 g/ha ([3]; Echinochloa crus-galli, Flood, 31 g ai/ha, scale 0 to 100, read-out: Plant response rating, Barnyardgrass) of the same compound?
Answer: 0%

Question: And the plant injury at 62 g/ha (rice (Oryza sativa); Oryza sativa, Flood (flooded paddy test), 62 g ai/ha, scale 0 to 100, 0 no effect, 100 complete control, read-out: Plant response rating, Rice)?
Answer: 0%

Question: And the plant injury at 125 g/ha (rice (Oryza sativa); Oryza sativa, Flood (flooded paddy test), 125 g ai/ha, scale 0 to 100, 0 no effect, 100 complete control, read-out: Plant response rating, Rice)?
Answer: 0%

Question: And the plant injury at 250 g/ha (rice (Oryza sativa); [16])?
Answer: 0%

Question: And the plant injury at 31 g/ha (rice (Oryza sativa); Oryza sativa, Flood, 31 g ai/ha, scale 0 to 100, read-out: Plant response rating, Rice)?
Answer: 0%

Question: Which results are given for `Cc1nn(C)c(=O)c(-n2nc(-c3ccc(Cl)cc3)cc2Cl)c1O` [Compound 59]?
Answer: Plant response rating, Sedge, Umbrella [1, 18]: 0; Plant response rating, Sedge, Umbrella [1, 19]: 30; Plant response rating, Ducksalad [2, 18]: 0; Plant response rating, Ducksalad [2, 19]: 20; Plant response rating, Barnyardgrass [3, 18]: 0; Plant response rating, Barnyardgrass [3, 19]: 50; Plant response rating, Rice (rice (Oryza sativa); [18]): 10; Plant response rating, Rice (rice (Oryza sativa); [19]): 25; Morningglory plant response rating [4, 20]: 0; Plant response rating, Morningglory ([4]; 16 g ai/ha, scale 0 to 100): 0; Plant response rating, Morningglory ([4]; 31 g ai/ha, scale 0 to 100): 0; Plant response rating, Morningglory [4, 21]: 0; Surinam Grass plant response rating [5, 20]: 75; Plant response rating, Surinam Grass ([5]; 16 g ai/ha, scale 0 to 100): 85; Plant response rating, Surinam Grass ([5]; 31 g ai/ha, scale 0 to 100): 90; Plant response rating, Surinam Grass [5, 21]: 100; Goosegrass plant response rating [6, 20]: 0; Plant response rating, Goosegrass ([6]; 16 g ai/ha, scale 0 to 100): 0; Plant response rating, Goosegrass ([6]; 31 g ai/ha, scale 0 to 100): 0; Plant response rating, Goosegrass [6, 21]: 0; Wheat plant response rating [7, 20]: 0; Plant response rating, Wheat ([7]; 16 g ai/ha, scale 0 to 100): 15; Plant response rating, Wheat ([7]; 31 g ai/ha, scale 0 to 100): 40; Plant response rating, Wheat [7, 21]: 50; Foxtail, Giant plant response rating [8, 20]: 80; Plant response rating, Foxtail, Giant ([8]; 16 g ai/ha, scale 0 to 100): 85; Plant response rating, Foxtail, Giant ([8]; 31 g ai/ha, scale 0 to 100): 90; Plant response rating, Foxtail, Giant [8, 21]: 95; Soybean plant response rating (soybean (Glycine max); [20]): 0; Plant response rating, Soybean (soybean (Glycine max); 16 g ai/ha, scale 0 to 100): 0; Plant response rating, Soybean (soybean (Glycine max); 31 g ai/ha, scale 0 to 100): 0; Plant response rating, Soybean (soybean (Glycine max); [21]): 0; Bromegrass, Downy plant response rating [9, 20]: 0; Plant response rating, Bromegrass, Downy ([9]; 16 g ai/ha, scale 0 to 100): 5; Plant response rating, Bromegrass, Downy ([9]; 31 g ai/ha, scale 0 to 100): 5; Plant response rating, Bromegrass, Downy [9, 21]: 10

Question: `Cc1cn(-c2ccc(C(F)(F)F)cc2)nc1-c1c(O)cnn(C)c1=O` [Compound 85, 5-hydroxy-2-methyl-4-[4-methyl-1-[4-(trifluoromethyl)phenyl]-1H-pyrazol-3-yl]-3(2H)-pyridazinone] was tested. Which pest or weed control at 250 g/ha [1, 10] did it give?
Answer: 0%

Question: What about the pest or weed control at 62 g/ha [1, 11] of the same compound?
Answer: 0%

Question: And the pest or weed control at 250 g/ha [2, 12]?
Answer: 0%

Question: And the pest or weed control at 62 g/ha [2, 13]?
Answer: 0%

Question: What about the pest or weed control at 250 g/ha [3, 14] of the same compound?
Answer: 0%

Question: What about the pest or weed control at 62 g/ha [3, 15] of the same compound?
Answer: 0%

Question: And the plant injury at 250 g/ha (rice (Oryza sativa); [16])?
Answer: 0%

Question: What about the plant injury at 62 g/ha (rice (Oryza sativa); [17]) of the same compound?
Answer: 0%

— patent publication US20100267561A1, “HERBICIDAL PYRIDAZINONE DERIVATIVES” (priority 2007, published 2010)
